According to PMC7284125, “Identification of annotated bioactive molecules that impair motility of the blood fluke Schistosoma mansoni” (International Journal for Parasitology: Drugs and Drug …, 2020):
pIC50: −log10 of the molar value.

tested on: naïve Glo HEK293 cells (no receptor); assay: cAMP luminescence (GloSensor) assay on naïve Glo HEK293 cells (no receptor); assay type: cell-based, human; settings: 50 μM EPN
Procedure: The SmGPR2 sequence previously identified ([El-Shehabi and Ribeiro, 2010]) was codon optimized for mammalian expression and subcloned in the vector pCI-neo (Addgene, USA) using the XbaI and NotI restriction enzymes. A FLAG fusion tag ([…]) was introduced at the N-terminal end of the receptor sequence. Stable transfection of HEK293 cells (ATCC; CRL-1573) was performed using the X-tremeGENE 9 DNA transfection reagent (Sigma Aldrich). Cells were then cultured at 37 °C, 5% CO2 in Opti-MEM supplemented with 5% FBS and maintained in 400 μg/mL G418 (Sigma Aldrich) for selection of transformants. […] All cell lines expressing S. mansoni GPCRs were then transfected with the GloSensor encoding plasmid p22F (Promega) and media was supplemented with 100 μg/mL hygromycin for stable expression (ThermoFisher).
Adherent HEK293 cells were seeded at a density of 5 x 10^4 cells/well (96-well plate) in Opti-MEM without FBS or antibiotics and incubated overnight at 37 °C and 5% CO2 prior to the assay. In place of the media, 100 μL HBSS supplemented with 0.1% bovine serum albumin (BSA), 500 μM 3-isobutyl-1-methylxanthine (IBMX, Sigma Aldrich), 20 mM HEPES (pH 7.4) and 1 mg/mL D-luciferin (Goldbio) was added to each well. After a 2 h incubation period at room temperature, luminescence background was recorded, and compounds and control ligands were added at 10X concentration. Immediately after compound addition, luminescence was read over a 45 min period to detect compounds stimulating cAMP release through receptor activation. […] For each assay, luminescence responses were recorded in triplicate and repeated with four independant cell batches. Compounds were also added to naïve Glo HEK293 cells (no receptor) and the robustness of the assay was calculated as: Z^'=1−3×(SDmax+SDmin)/Meanmax−Meanmin with max and min referring respectively to cells expressing GPCRs and Glo (no receptor) cells. Cellular viability was assessed using a CellTiter Glo 2.0 kit (Promega). Glo cells were exposed to 10 μM of each hit compound for 3 h in Opti-MEM at 37 °C, 5% CO2. An equimolar concentration of tamoxifen (Sigma Aldrich) was used as a positive control. 2X cell lysis media was then added and end-point luminescence recorded after a 10 min stabilization time.

Row | Compound | inhibition of EPN-evoked luminescence
1 | CNCC[C@H](Oc1cccc2ccccc12)c1cccs1 [Duloxetine] | ≥ 50%
2 | Cc1ccc(Sc2ccccc2N2CCNCC2)c(C)c1 [Vortioxetine] | ≥ 50%
3 | O=C1CCc2ccc(OCCCCN3CCN(c4cccc(Cl)c4Cl)CC3)cc2N1 [Aripiprazole] | ≥ 50%

tested on: S. mansoni adult worms; assay: Motility assay on adult parasites (pixel displacement, relative to DMSO control); assay type: cell-based, Schistosoma mansoni; settings: secondary screen, 10 μM, D1, Female adult worms
Procedure, shortened: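 Unpaired adult worms from mice 6 weeks post-infection kept in OPTI-MEM with 5% dialyzed FBS and exposed to compounds at 1 and 10 μM for 24 h. Motility filmed 1 min at 10 frames/s, quantified by pixel displacement versus DMSO-treated worms; recovery followed up to five days after washout.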

Row | Compound | Fractional motility
4 | CNCC[C@H](Oc1cccc2ccccc12)c1cccs1 [Duloxetine] | 0.62
5 | Cc1ccc(Sc2ccccc2N2CCNCC2)c(C)c1 [Vortioxetine] | 2.64
6 | O=C1CCc2ccc(OCCCCN3CCN(c4cccc(Cl)c4Cl)CC3)cc2N1 [Aripiprazole] | 0.19
7 | COCCn1c2c([n+](Cc3cnccn3)c1C)C(=O)c1ccccc1C2=O [YM155] | 0.22
8 | COCCCC/C(=N\OCCN)c1ccc(C(F)(F)F)cc1 [Fluvoxamine] | 1.69
9 | CN(C)CC/C=C1/c2ccccc2Sc2ccc(Cl)cc21 [Chlorprothixene] | 2.18

same assay, conditions: secondary screen, 10 μM, D1, Male adult worms

Row | Compound | Fractional motility
10 | CNCC[C@H](Oc1cccc2ccccc12)c1cccs1 [Duloxetine] | 4.31
11 | Cc1ccc(Sc2ccccc2N2CCNCC2)c(C)c1 [Vortioxetine] | 2.15
12 | O=C1CCc2ccc(OCCCCN3CCN(c4cccc(Cl)c4Cl)CC3)cc2N1 [Aripiprazole] | 0.50
13 | COCCn1c2c([n+](Cc3cnccn3)c1C)C(=O)c1ccccc1C2=O [YM155] | 1.90
14 | COCCCC/C(=N\OCCN)c1ccc(C(F)(F)F)cc1 [Fluvoxamine] | 4.13
15 | CN(C)CC/C=C1/c2ccccc2Sc2ccc(Cl)cc21 [Chlorprothixene] | 2.53

same assay, conditions: secondary screen, 10 μM, D5, Female adult worms

Row | Compound | Fractional motility
16 | CNCC[C@H](Oc1cccc2ccccc12)c1cccs1 [Duloxetine] | 0.30
17 | Cc1ccc(Sc2ccccc2N2CCNCC2)c(C)c1 [Vortioxetine] | 0.24
18 | O=C1CCc2ccc(OCCCCN3CCN(c4cccc(Cl)c4Cl)CC3)cc2N1 [Aripiprazole] | -0.80
19 | COCCn1c2c([n+](Cc3cnccn3)c1C)C(=O)c1ccccc1C2=O [YM155] | -0.79
20 | COCCCC/C(=N\OCCN)c1ccc(C(F)(F)F)cc1 [Fluvoxamine] | 0.13
21 | CN(C)CC/C=C1/c2ccccc2Sc2ccc(Cl)cc21 [Chlorprothixene] | 0.23

same assay, conditions: secondary screen, 10 μM, D5, Male adult worms

Row | Compound | Fractional motility
22 | CNCC[C@H](Oc1cccc2ccccc12)c1cccs1 [Duloxetine] | 0.54
23 | Cc1ccc(Sc2ccccc2N2CCNCC2)c(C)c1 [Vortioxetine] | 1.01
24 | O=C1CCc2ccc(OCCCCN3CCN(c4cccc(Cl)c4Cl)CC3)cc2N1 [Aripiprazole] | -0.14
25 | COCCn1c2c([n+](Cc3cnccn3)c1C)C(=O)c1ccccc1C2=O [YM155] | 0.70
26 | COCCCC/C(=N\OCCN)c1ccc(C(F)(F)F)cc1 [Fluvoxamine] | 0.22
27 | CN(C)CC/C=C1/c2ccccc2Sc2ccc(Cl)cc21 [Chlorprothixene] | 0.16

molecular target: SmD2 (Schistosoma mansoni, UniProt G4LUJ1); assay: cell-based; assay type: cell-based; settings: not given
Sequence (G4LUJ1 entry or part of it): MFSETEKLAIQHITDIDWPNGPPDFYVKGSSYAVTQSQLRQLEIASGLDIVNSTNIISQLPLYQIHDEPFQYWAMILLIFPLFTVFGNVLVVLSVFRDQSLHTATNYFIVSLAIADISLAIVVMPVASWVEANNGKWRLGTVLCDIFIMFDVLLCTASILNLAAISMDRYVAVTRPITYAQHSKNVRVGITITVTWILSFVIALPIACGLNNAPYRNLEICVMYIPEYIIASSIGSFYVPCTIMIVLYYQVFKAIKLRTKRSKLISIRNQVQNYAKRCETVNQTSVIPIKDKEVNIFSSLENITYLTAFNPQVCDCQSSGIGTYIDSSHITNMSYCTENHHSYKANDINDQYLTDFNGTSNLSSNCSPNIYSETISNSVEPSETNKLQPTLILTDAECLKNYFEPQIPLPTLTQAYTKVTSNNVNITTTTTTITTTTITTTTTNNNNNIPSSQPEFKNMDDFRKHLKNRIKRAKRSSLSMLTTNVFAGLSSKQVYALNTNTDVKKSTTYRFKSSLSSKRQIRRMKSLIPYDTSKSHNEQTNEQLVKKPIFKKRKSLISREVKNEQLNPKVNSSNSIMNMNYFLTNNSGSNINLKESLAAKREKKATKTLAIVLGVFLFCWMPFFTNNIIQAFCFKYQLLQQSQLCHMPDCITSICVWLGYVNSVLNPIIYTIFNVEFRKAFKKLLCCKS

Row | Compound | pIC50
28 | CNCC[C@H](Oc1cccc2ccccc12)c1cccs1 [Duloxetine] | 5.23

same assay, conditions: HEK293, read-out: inhibition of EPN-evoked luminescence

Row | Compound | inhibition at 10 µM
29 | CNCC[C@H](Oc1cccc2ccccc12)c1cccs1 [Duloxetine] | ≥ 50%

same assay, conditions: HEK293; SmD2 cells, 10 μM compound, 50 μM EPN; read-out: inhibition of EPN-evoked luminescence

Row | Compound | inhibition at 10 µM
30 | Cc1ccc(Sc2ccccc2N2CCNCC2)c(C)c1 [Vortioxetine] | ≥ 50%

same assay, conditions: inhibition of EPN-evoked luminescence, SmD2 expressing HEK293 cells; read-out: IC50

Row | Compound | pIC50
31 | Cc1ccc(Sc2ccccc2N2CCNCC2)c(C)c1 [Vortioxetine] | 5.43

tested on: S. mansoni schistosomulae; assay: Motility assay on schistosomulae (pixel displacement, relative to DMSO control); assay type: cell-based, Schistosoma mansoni; settings: Schistosoma mansoni, 120 h, read-out: Fractional motility
Procedure, shortened: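 Mechanically transformed S. mansoni schistosomulae (200/well) in Opti-MEM with 5% dialyzed FBS were exposed to compounds at 1 and 10 μM for 24 h at 37 °C, 5% CO2. Motility filmed at 10 frames/s for 1 min and quantified by pixel displacement relative to DMSO-treated controls.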

Row | Compound | activity at 1 µM
32 | CNCC[C@H](Oc1cccc2ccccc12)c1cccs1 [Duloxetine] | -13%

same assay, conditions: Schistosoma mansoni, 120 h; Selleckchem customized library secondary screen, 24h, D5, 1 µM; read-out: Fractional motility

Row | Compound | activity at 1 µM
33 | Cc1ccc(Sc2ccccc2N2CCNCC2)c(C)c1 [Vortioxetine] | 60%
34 | CN(C)CC/C=C1/c2ccccc2Sc2ccc(Cl)cc21 [Chlorprothixene] | 207%

same assay, conditions: Schistosoma mansoni, 120 h; schistosomulae, secondary screen, 24h exposure, read at D5, 1 µM; read-out: Fractional motility

Row | Compound | activity at 1 µM
35 | O=C1CCc2ccc(OCCCCN3CCN(c4cccc(Cl)c4Cl)CC3)cc2N1 [Aripiprazole] | -61%
36 | COCCn1c2c([n+](Cc3cnccn3)c1C)C(=O)c1ccccc1C2=O [YM155] | -82%
37 | COCCCC/C(=N\OCCN)c1ccc(C(F)(F)F)cc1 [Fluvoxamine] | 99%

same assay, conditions: Schistosoma mansoni; schistosomulae, secondary screen, 24h exposure, read at D1, 1 µM; read-out: Fractional motility

Row | Compound | activity at 1 µM
38 | O=C1CCc2ccc(OCCCCN3CCN(c4cccc(Cl)c4Cl)CC3)cc2N1 [Aripiprazole] | -48%
39 | COCCn1c2c([n+](Cc3cnccn3)c1C)C(=O)c1ccccc1C2=O [YM155] | -73%
40 | COCCCC/C(=N\OCCN)c1ccc(C(F)(F)F)cc1 [Fluvoxamine] | 812%

same assay, conditions: Selleckchem customized library secondary screen, 24h, D1, 10 µM

Row | Compound | Fractional motility
41 | Cc1ccc(Sc2ccccc2N2CCNCC2)c(C)c1 [Vortioxetine] | 55.99
42 | CN(C)CC/C=C1/c2ccccc2Sc2ccc(Cl)cc21 [Chlorprothixene] | 73.31

same assay, conditions: Selleckchem customized library secondary screen, 24h, D5, 10 µM

Row | Compound | Fractional motility
43 | Cc1ccc(Sc2ccccc2N2CCNCC2)c(C)c1 [Vortioxetine] | -0.42
44 | CN(C)CC/C=C1/c2ccccc2Sc2ccc(Cl)cc21 [Chlorprothixene] | 9.20

same assay, conditions: schistosomulae, 1h exposure, read at D1, 10 µM

Row | Compound | Fractional motility
45 | COCCn1c2c([n+](Cc3cnccn3)c1C)C(=O)c1ccccc1C2=O [YM155] | -0.48

same assay, conditions: schistosomulae, 1h exposure, read at D5, 10 µM

Row | Compound | Fractional motility
46 | COCCn1c2c([n+](Cc3cnccn3)c1C)C(=O)c1ccccc1C2=O [YM155] | -0.85

same assay, conditions: schistosomulae, 3h exposure, read at D1, 10 µM

Row | Compound | Fractional motility
47 | COCCn1c2c([n+](Cc3cnccn3)c1C)C(=O)c1ccccc1C2=O [YM155] | -0.70

same assay, conditions: schistosomulae, 3h exposure, read at D5, 10 µM

Row | Compound | Fractional motility
48 | COCCn1c2c([n+](Cc3cnccn3)c1C)C(=O)c1ccccc1C2=O [YM155] | -0.96

same assay, conditions: schistosomulae, 6h exposure, read at D1, 10 µM

Row | Compound | Fractional motility
49 | COCCn1c2c([n+](Cc3cnccn3)c1C)C(=O)c1ccccc1C2=O [YM155] | 1.86

same assay, conditions: schistosomulae, 6h exposure, read at D5, 10 µM

Row | Compound | Fractional motility
50 | COCCn1c2c([n+](Cc3cnccn3)c1C)C(=O)c1ccccc1C2=O [YM155] | -1.00

same assay, conditions: schistosomulae, after 24 h exposure

Row | Compound | motility phenotype in words
51 | Cc1ccc(Sc2ccccc2N2CCNCC2)c(C)c1 [Vortioxetine] | high levels of hypermotility
52 | CN(C)CC/C=C1/c2ccccc2Sc2ccc(Cl)cc21 [Chlorprothixene] | high levels of hypermotility

same assay, conditions: schistosomulae, secondary screen, 24h exposure, read at D1, 10 µM

Row | Compound | Fractional motility
53 | O=C1CCc2ccc(OCCCCN3CCN(c4cccc(Cl)c4Cl)CC3)cc2N1 [Aripiprazole] | -0.15
54 | COCCn1c2c([n+](Cc3cnccn3)c1C)C(=O)c1ccccc1C2=O [YM155] | -0.91
55 | COCCCC/C(=N\OCCN)c1ccc(C(F)(F)F)cc1 [Fluvoxamine] | 10.49

same assay, conditions: schistosomulae, secondary screen, 24h exposure, read at D5, 10 µM

Row | Compound | Fractional motility
56 | O=C1CCc2ccc(OCCCCN3CCN(c4cccc(Cl)c4Cl)CC3)cc2N1 [Aripiprazole] | -0.56
57 | COCCn1c2c([n+](Cc3cnccn3)c1C)C(=O)c1ccccc1C2=O [YM155] | -1.00
58 | COCCCC/C(=N\OCCN)c1ccc(C(F)(F)F)cc1 [Fluvoxamine] | 3.18

same assay, conditions: three-day old schistosomulae, incubation 1 h, 3 h, 6 h

Row | Compound | motility in extended assay with reduced incubation times, in words
59 | COCCn1c2c([n+](Cc3cnccn3)c1C)C(=O)c1ccccc1C2=O [YM155] | significant and sustained hypomotility

tested on: S. mansoni schistosomulae; assay: Phenotypic primary screen assay on schistosomulae (phenotype; viability by methylene blue dye exclusion); assay type: cell-based; settings: Schistosoma mansoni

Row | Compound | viability at 10 µM
60 | CNCC[C@H](Oc1cccc2ccccc12)c1cccs1 [Duloxetine] | 90%

same assay, conditions: Schistosoma mansoni; three-day-old schistosomulae, 10 μM, 24 h; calculated 5 days post compound exposure; read-out: Viability (%)

Row | Compound | viability at 10 µM
61 | Cc1ccc(Sc2ccccc2N2CCNCC2)c(C)c1 [Vortioxetine] | 10%
62 | O=C1CCc2ccc(OCCCCN3CCN(c4cccc(Cl)c4Cl)CC3)cc2N1 [Aripiprazole] | 96.5%
63 | COCCn1c2c([n+](Cc3cnccn3)c1C)C(=O)c1ccccc1C2=O [YM155] | 40%
64 | COCCCC/C(=N\OCCN)c1ccc(C(F)(F)F)cc1 [Fluvoxamine] | 97%
65 | CN(C)CC/C=C1/c2ccccc2Sc2ccc(Cl)cc21 [Chlorprothixene] | 99%

tested on: S. mansoni schistosomulae; assay: as above; assay type: cell-based, Schistosoma mansoni; settings: not given
Procedure, shortened: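 Parasites lacking contraction/relaxation cycles and showing dark internal granulations counted as dead. Movement and body shape were compared with DMSO-treated controls under a stereo microscope at 24 h and at five days of exposure. Larvae came from infected snails shed under light for 2 h at 32 °C.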

Row | Compound | Phenotype
66 | CNCC[C@H](Oc1cccc2ccccc12)c1cccs1 [Duloxetine] | granulated

same assay, conditions: 24 h incubation, five days

Row | Compound | effect on viability of schistosomulae in words
67 | Cc1ccc(Sc2ccccc2N2CCNCC2)c(C)c1 [Vortioxetine] | schistosomulicidal

same assay, conditions: three-day-old schistosomulae, 10 μM, 24 h; estimated 5 days post compound exposure

Row | Compound | Phenotype
68 | Cc1ccc(Sc2ccccc2N2CCNCC2)c(C)c1 [Vortioxetine] | big, granulated
69 | O=C1CCc2ccc(OCCCCN3CCN(c4cccc(Cl)c4Cl)CC3)cc2N1 [Aripiprazole] | granulated
70 | COCCn1c2c([n+](Cc3cnccn3)c1C)C(=O)c1ccccc1C2=O [YM155] | big, granulated
71 | COCCCC/C(=N\OCCN)c1ccc(C(F)(F)F)cc1 [Fluvoxamine] | elongated
72 | CN(C)CC/C=C1/c2ccccc2Sc2ccc(Cl)cc21 [Chlorprothixene] | elongated
